Results taken from publication PMC12818745 (ACS Chemical Neuroscience, 2025).

Tests used:
[1] = molecular target: T1, eqBChE (equine serum butyrylcholinesterase) (Equus caballus, UniProt P81908); test: Cholinesterase inhibition assay (modified Ellman's method), eqBChE; format: biochemical
T1 construct: eqBChE (equine serum butyrylcholinesterase); from tissue; host or cells: equine serum
Excerpt: (§1) Compound series A and B were initially screened for their cholinesterase activity against eeAChE (Electrophorus electricus AChE) and eqBChE (equine serum butyrylcholinesterase), using an adaptation of the Ellman’s method. […]. […] Similarly, replacing the terminal triple bond in 7l with a nitrile group reduced its activity, while replacing the O-propargyl group with an N,N-dipropargyl group in 10 enhanced the inhibition of both enzymes, particularly BChE (Table ). The installation of an additional aryl ring in 7o further improved AChE inhibition, slightly increasing selectivity toward this enzyme. […]. […]. […]. The inhibitory activity of the synthesized compounds toward eeAChE and eqBChE was evaluated spectrophotometrically through a 96-well microplate modified Ellman’s method. The solutions of both enzymes were prepared as 0.025 U/mL in phosphate buffer at pH 7, from stock solutions of 5.05 U/mL and 7.50 U/mL, respectively. The stock solutions for the target compounds (0.1 M) were prepared in dimethyl sulfoxide (DMSO). […] The reaction mixture was prepared with 100 μL of the enzyme (eeAChE or eqBChE) and 50 μL of the test compound (or DMSO/water, not exceeding 0.2% of DMSO in the wells; i.e blank samples). After 5 min of the preincubation period at 37 °C, 50 μL of ATChI or BTChI and 50 μL of DTNB were added to each well, thus initiating the enzymatic reaction. The absorbance values were measured at 415 nm, for a total of 7.5 min, at every 2.5 min, using a microplate reader (Synergy multimode reader; BioTek). […]. All experiments were performed in triplicate.

Aβ42 aggregation = molecular target: T2, Aβ42 aggregation (Homo sapiens, UniProt P05067); test: Thioflavin S assay of Aβ42 aggregation in E. coli cells overexpressing Aβ42; format: cell-based, Escherichia coli; settings: read-out: Aβ42 inhibition %
T2 construct: expressed in transfected cells; host or cells: E. coli BL21 (DE3), pET vector
Description: (§2) The antiaggregating profiles of both series A and B were evaluated using a fluorescence Thioflavin S (ThS) assay in cellulo, which monitors ThS fluorescence in the presence of β-sheet-rich structures, such as Aβ and tau protein aggregates. This method, based on recombinant Escherichia coli (E. coli) bacteria overexpressing insoluble aggregates, offers a simple and cost-effective approach to model aggregation processes in mammalian systems and has been validated for use in drug discovery studies. , Compounds were tested at a screening concentration of 50 μM for their ability to inhibit Aβ42 aggregation. The results, summarized in Table , reveal distinct antiaggregating profiles between series A and B, which are once again influenced by their structural differences.
42 Amino acid Aβ42 was cloned and overexpressed in E. coli BL21 (DE3) competent cells using the pET vector harboring the DNA sequence of Aβ42. Due to the addition of the initiation codon ATG preceding genes, the resulting overexpressed peptide contained an additional methionine residue at its N-terminus. For the preparation of overnight cultures, a colony of BL21 (DE3) cells carrying the plasmid for expression was inoculated in 10 mL of M9 minimal medium supplemented with 50 μg mL^–1 kanamycin at 37 °C. Subsequently, a 1:500 dilution of the overnight culture was added to fresh M9 minimal medium containing 50 μg mL^–1 kanamycin and 25 μM ThS. The bacterial culture was then incubated at 37 °C with agitation at 250 rpm. Upon reaching an OD600 of 0.6, 980 μL of the culture was transferred into 1.5 mL Eppendorf tubes, each containing 10 μL of the compound to be tested dissolved in DMSO and 10 μL of 100 mM isopropyl 1-thio-β-D-galactopyranoside (IPTG) or, alternatively, 10 μL of water for the noninduced controls. The final compound concentration was adjusted to […]. The samples were allowed to grow overnight at 37 °C with agitation at 1400 rpm using a Thermomixer (Eppendorf). Negative controls, representing maximum amyloid presence, utilized free DMSO.
(§3) ThS (T1892) and all other chemical reagents were purchased from Sigma (St. Louis, MO). Stock solutions of ThS (250 μM) were prepared using doubly distilled water purified via a Milli-Q system (Millipore). For the fluorescence assay, ThS spectra were recorded utilizing an AmincoBowman series 2 luminescence spectrophotometer (Aminco-Bowman AB2, SLM Aminco, Rochester, NY) within the range of 460 to 600 nm at a temperature of 25 °C. The excitation wavelength employed was 445 nm, with slit widths set at 4 nm. The emission at 485 nm, corresponding to the ThS peak observed in the presence of amyloids, was recorded. To standardize ThS fluorescence relative to bacterial concentration in both in vitro and cell-based assays, the OD600 was determined using a Shimadzu UV-2401 PC UV–vis spectrophotometer. Fluorescence normalization was executed by setting the ThS fluorescence of bacterial cells expressing the peptide or protein in the absence of the drug as 100%, while that of bacterial cells not expressing the peptide or protein was established as 0%.

Tau protein aggregation = molecular target: T3, Tau protein aggregation (Homo sapiens, UniProt P10636); test: Thioflavin S assay of tau protein aggregation in E. coli cells overexpressing tau; format: cell-based, Escherichia coli; settings: read-out: Tau inhibition %
T3 construct: For the cloning and overexpression of full-length tau protein; expressed in transfected cells; host or cells: E. coli BL21 (DE3) carrying pTARA and pRKT42
Description: as §2
This strategic extension aimed to validate the chromeno[3,4-b]-xanthone scaffold for related aggregation targets, considering the structural and pathological similarities between Aβ and tau aggregation processes. […]. […] Nevertheless, it is important to interpret the results cautiously, as the inability of certain compounds to cross bacterial membranes, may have underestimated their true inhibitory activity in the assay.
For the cloning and overexpression of full-length tau protein, E. coli BL21 (DE3) competent cells were transformed first with the pTARA vector containing the RNA polymerase gene of phage T7 (T7RP), controlled by the PBAD promoter. Subsequently, E. coli BL21(DE3) competent cells containing pTARA were transformed with the pRKT42 vector encoding four repeats of tau protein in two inserts. Similar to the procedure for Aβ42, overnight cultures were prepared by inoculating colonies of BL21 (DE3) cells bearing the plasmids in M9 medium supplemented with 0.5% glucose, 50 μg mL^–1 ampicillin, and 12.5 μg mL^–1 chloramphenicol at 37 °C. Upon induction, a 1:500 dilution of the overnight culture was added to fresh M9 minimal medium containing 0.5% glucose, 50 μg mL^–1 ampicillin, 12.5 μg mL^–1 chloramphenicol, and 25 μM ThS. The subsequent steps mirrored those for the Aβ assay, including the addition of the compound to be tested dissolved in DMSO and 10 μL of 25% arabinose or, alternatively, 10 μL of water for the noninduced controls, with a final compound concentration of […]. Negative controls for tau overexpression utilized free DMSO.
as §3

in vitro = settings: for Papp at 2.5 h: PAMPA, pH 7.4; for Prediction (penetration into the CNS): class from PAMPA-BBB P e
Description: To assess BBB permeability, a parallel artificial membrane permeability assay (PAMPA)-BBB was performed, which predicts passive BBB permeability using a brain lipid porcine membrane.
The prediction of the brain penetration was evaluated using a PAMPA-BBB. […] Next, 100 μL of these stock solutions were added to a solution of 1400 μL of EtOH and 3500 μL of PBS at pH 7.4, to reach 30% of EtOH concentration in the experiment. These solutions were filtered, using Filter PDVF membrane units (diameter 30 mm, pore size 0.45 μm, from Symta). After this, the acceptor 96-well microplate (Multiscreen, catalogue no. MAMCS9610, from Millipore) was filled with 180 μL of PBS/EtOH (70/30). […] After 5 min, 180 μL of each compound solution was added. 1–2 mg of each selected compound was dissolved in 1500 μL of EtOH and 3500 μL of PBS at pH 7.4, filtered, and then added to the donor 96-well plate to determine their ability to cross the brain barrier. After this, the donor plate was carefully put on the acceptor plate to form a “sandwich” and incubated for 2.5 h at 25 °C. During this period, the compounds diffused from the donor plate through the brain lipid membrane into the acceptor plate. Afterward, the donor plate was removed. A 96-well plate UV reader (Thermoscientific, Multiskan spectrum) was used to determine the concentration of compounds and commercial drugs in the acceptor and donor wells. Every sample was analyzed at three to five wavelengths, in three wells, and in two independent runs. […] Ten quality control compounds (previously mentioned) of known BBB permeability were included in each experiment to validate the analysis set.

[2] = molecular target: eeAChE (Electrophorus electricus AChE) (Electrophorus electricus, UniProt O42275); test: Cholinesterase inhibition assay (modified Ellman's method), eeAChE; format: biochemical; settings: for SI eeAChE: ratio eqBChE IC50/eeAChE IC50
Excerpt: as §1

Sequence of eeAChE (Electrophorus electricus AChE) (O42275 24-633): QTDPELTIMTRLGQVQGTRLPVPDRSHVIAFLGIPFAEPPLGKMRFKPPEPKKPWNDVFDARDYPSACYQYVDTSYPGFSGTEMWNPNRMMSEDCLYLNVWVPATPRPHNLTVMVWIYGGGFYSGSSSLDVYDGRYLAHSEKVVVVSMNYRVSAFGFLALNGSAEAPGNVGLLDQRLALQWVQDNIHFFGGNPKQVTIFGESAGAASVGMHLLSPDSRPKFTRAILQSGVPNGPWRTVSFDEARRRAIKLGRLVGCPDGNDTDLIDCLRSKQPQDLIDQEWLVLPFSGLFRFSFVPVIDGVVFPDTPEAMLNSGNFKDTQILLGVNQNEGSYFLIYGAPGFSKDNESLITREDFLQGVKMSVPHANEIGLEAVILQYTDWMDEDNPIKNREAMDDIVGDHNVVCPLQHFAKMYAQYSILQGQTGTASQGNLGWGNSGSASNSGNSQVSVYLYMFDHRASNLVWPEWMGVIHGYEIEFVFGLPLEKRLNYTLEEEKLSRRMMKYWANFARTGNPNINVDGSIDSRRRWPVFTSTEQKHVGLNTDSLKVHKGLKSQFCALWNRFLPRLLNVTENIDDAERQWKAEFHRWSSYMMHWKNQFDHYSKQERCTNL
T1 sequence (P81908 whole entry): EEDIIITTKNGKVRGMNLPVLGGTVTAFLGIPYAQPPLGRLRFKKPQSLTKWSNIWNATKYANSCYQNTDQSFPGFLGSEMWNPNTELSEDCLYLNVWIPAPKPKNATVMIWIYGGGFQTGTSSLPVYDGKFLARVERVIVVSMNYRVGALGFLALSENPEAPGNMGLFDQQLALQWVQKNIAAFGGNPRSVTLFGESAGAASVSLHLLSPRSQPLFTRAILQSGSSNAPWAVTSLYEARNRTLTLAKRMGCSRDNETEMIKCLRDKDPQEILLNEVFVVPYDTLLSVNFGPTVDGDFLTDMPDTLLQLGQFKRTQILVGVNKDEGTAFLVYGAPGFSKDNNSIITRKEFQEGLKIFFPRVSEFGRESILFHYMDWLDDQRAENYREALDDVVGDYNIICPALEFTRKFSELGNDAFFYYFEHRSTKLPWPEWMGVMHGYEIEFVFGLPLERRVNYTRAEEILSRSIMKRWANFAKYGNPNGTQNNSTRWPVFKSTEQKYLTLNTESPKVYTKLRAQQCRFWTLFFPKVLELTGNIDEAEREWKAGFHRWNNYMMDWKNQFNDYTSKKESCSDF
T3 sequence (P10636 other isoform, or with tags, fused parts or gaps): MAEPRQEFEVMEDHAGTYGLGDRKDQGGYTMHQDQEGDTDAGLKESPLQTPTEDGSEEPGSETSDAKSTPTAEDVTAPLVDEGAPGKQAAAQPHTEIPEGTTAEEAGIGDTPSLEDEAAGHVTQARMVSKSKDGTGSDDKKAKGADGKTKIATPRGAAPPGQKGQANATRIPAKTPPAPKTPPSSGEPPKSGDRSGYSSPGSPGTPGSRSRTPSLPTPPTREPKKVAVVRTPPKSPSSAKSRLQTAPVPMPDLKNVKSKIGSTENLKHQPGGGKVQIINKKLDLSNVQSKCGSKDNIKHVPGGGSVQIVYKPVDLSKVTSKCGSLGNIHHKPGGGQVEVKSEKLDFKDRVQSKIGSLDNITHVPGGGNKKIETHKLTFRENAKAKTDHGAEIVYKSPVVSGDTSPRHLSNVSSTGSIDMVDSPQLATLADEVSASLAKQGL
T2 sequence (P05067 672-713): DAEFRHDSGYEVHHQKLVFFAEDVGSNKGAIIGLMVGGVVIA

| SMILES | IC50 [1] [µM] | inhibition at 50 µM (Aβ42 aggregation) [%] | inhibition at 50 µM (Tau protein aggregation) [%] | Papp at 2.5 h (in vitro; pig) [×10⁻⁶ cm/s] | IC50 [2] [µM] | SI eeAChE [2] | Prediction (penetration into the CNS) (in vitro) | Papp at 2.5 h (in vitro) [×10⁻⁶ cm/s] |
| --- | --- | --- | --- | --- | --- | --- | --- | --- |
| COc1ccc2c(=O)c3cc4c(cc3oc2c1OC)-c1ccccc1OC4 [Compound 11d, 11,12-Dimethoxy-6H,8H-chromeno[3,4-b]xanthen-8-one] | 7.1 ± 0.1 | 40 ± 6.4 | – | – | – | – | – | – |
| COc1ccc2c(c1)-c1cc3oc4cccc(OC)c4c(=O)c3cc1CO2 [Compound 11m, 2,9-Dimethoxy-6H,8H-chromeno[3,4-b]xanthen-8-one] | 7.3 ± 0.4 | 30 ± 6.6 | – | – | – | – | – | – |
| COc1ccc2c(=O)c3cc4c(cc3oc2c1)-c1c(ccc2ccccc12)OC4 [Compound 12b] | – | 54 ± 6.2 | 57 ± 7 | – | – | – | – | – |
| CCn1cc(C(=O)O)c(=O)c2cc(F)c(N3CCNCC3)nc21 [Enoxacin, reference compound] | – | – | – | 0.15 ± 0.15 | – | – | – | – |
| O=c1c2ccccc2oc2cc3c(cc12)COc1ccc(OC(F)(F)F)cc1-3 [Compound 11h, 2-(Trifluoromethoxy)-6H,8H-chromeno[3,4-b]xanthen-8-one] | 6.2 ± 0.7 | 41 ± 6.4 | – | – | 4 ± 1.2 | 1.55 | – | – |
| COc1cc(OC)c2c(=O)c3cc4c(cc3oc2c1)-c1ccccc1OC4 [Compound 11e, 9,11-Dimethoxy-6H,8H-chromeno[3,4-b]xanthen-8-one] | 9.4 ± 0.2 | 36 ± 4.4 | – | – | – | – | – | – |
| COc1ccc2c(=O)c3cc4c(cc3oc2c1)-c1cc(F)ccc1OC4 [Compound 11q, 2-Fluoro-11-methoxy-6H,8H-chromeno[3,4-b]xanthen-8-one] | – | 50 ± 6.7 | 55 ± 5.9 | 6.04 ± 1.99 | 4.3 ± 1.5 | – | CNS+ (High BBB permeation predicted (CNS+) P e > 3.93) | – |
| CNCCCN1c2ccccc2CCc2ccccc21 [Desipramine, reference compound] | – | – | – | 15.6 ± 1.78 | – | – | – | – |
| CN(C)CCCN1c2ccccc2Sc2ccccc21 [Promazine, reference compound] | – | – | – | – | – | – | – | 15.4 ± 0.91 |
| COc1ccc2c(c1)-c1cc3oc4ccccc4c(=O)c3cc1CO2 [Compound 11f, 2-Methoxy-6H,8H-chromeno[3,4-b]xanthen-8-one] | 6.1 ± 0.5 | 36 ± 7.8 | – | – | 6.9 ± 1.5 | 0.88 | – | – |
| CN1C(C(=O)Nc2ccccn2)=C(O)c2ccccc2S1(=O)=O [Piroxicam, reference compound] | – | – | – | 0.19 ± 0.02 | – | – | – | – |
| O=c1c2ccccc2oc2cc3c(cc12)COc1c(Br)cc(Cl)cc1-3 [Compound 11k, 4-Bromo-2-chloro-6H,8H-chromeno[3,4-b]xanthen-8-one] | 6.2 ± 1 | 46 ± 3.7 | 52 ± 7.2 | 2.3 ± 1.11 | 4.2 ± 0.9 | 1.48 | CNS± (Uncertain BBB permeation (CNS±) 3.93 > P e > 1.82) | – |
| COc1ccc2c(c1)-c1cc3oc4cc(OC)ccc4c(=O)c3cc1CO2 [Compound 11l, 2,11-Dimethoxy-6H,8H-chromeno[3,4-b]xanthen-8-one] | 9 ± 0.5 | 40 ± 5.1 | – | – | 4.8 ± 0.5 | 1.88 | – | – |
| COc1ccc2c(=O)c3cc4c(cc3oc2c1)-c1cc(Cl)cc(Br)c1OC4 [Compound 11s, 4-Bromo-2-chloro-11-methoxy-6H,8H-chromeno[3,4-b]xanthen-8-one] | 7 ± 0.4 | 46 ± 6.3 | 58 ± 7.1 | 8.7 ± 0.61 | 1.7 ± 1.2 | 4.12 | CNS+ (High BBB permeation predicted (CNS+) P e > 3.93) | – |
| O=c1c2ccccc2oc2cc3c(cc12)COc1ccc(F)cc1-3 [Compound 11i, 2-Fluoro-6H,8H-chromeno[3,4-b]xanthen-8-one] | – | 47 ± 8.4 | 52 ± 6.3 | – | – | – | – | – |
